Data as given in patent publication US20140128349A1 (Indiana University School of Medicine, priority 2012, published 2014).
“Also recorded” adds a separate entry of the source.

Experiments:
[1] = patients with prostate cancer bone metastases, regardless of radiographic phenotype; cited from earlier work
human melanoma cells = assay: Hfg treatment of human melanoma cells; format: cell-based
Excerpt: (§1) TGFbeta derived from bone fuels melanoma bone metastasis by inducing tumor secretion of pro-metastatic factors that act on bone cells to change the skeletal microenvironment. […] Hfg is active orally and by intraperitoneal injection, and it has completed Phase I clinical trials in cancer patients. It suppresses the phosphorylation and activation of Smad2 and Smad3 by inducting of Smad7. Overexpression of inhibitory Smad7 has been associated with a reduction on invasive capacity in vitro and anchorage-independent growth, and delays subcutaneous tumor growth in nude mice. The present inventors have shown that Smad7 overexpression decreased melanoma bone metastasis, thus is useful for treating and/or preventing muscle weakness and atrophy as well as other muscle related side effects in cancer patients.

1205Lu melanoma cells = assay: 1205Lu melanoma metastasis in nude mice; format: in vivo
Excerpt: as §1

RyR1 [2] = target: T1, RyR1 (Mus musculus, UniProt E9PZQ0); parameters: in a mouse model of aging, oxidation of skeletal muscle RyR1 causes depletion of the stabilizing subunit calstabin1 (FKBP12); from tissue; host or cells: skeletal muscle of aged (2 yr old) mice; conditions: mouse model of aging; cited from earlier work
T1 sequence (E9PZQ0 whole entry): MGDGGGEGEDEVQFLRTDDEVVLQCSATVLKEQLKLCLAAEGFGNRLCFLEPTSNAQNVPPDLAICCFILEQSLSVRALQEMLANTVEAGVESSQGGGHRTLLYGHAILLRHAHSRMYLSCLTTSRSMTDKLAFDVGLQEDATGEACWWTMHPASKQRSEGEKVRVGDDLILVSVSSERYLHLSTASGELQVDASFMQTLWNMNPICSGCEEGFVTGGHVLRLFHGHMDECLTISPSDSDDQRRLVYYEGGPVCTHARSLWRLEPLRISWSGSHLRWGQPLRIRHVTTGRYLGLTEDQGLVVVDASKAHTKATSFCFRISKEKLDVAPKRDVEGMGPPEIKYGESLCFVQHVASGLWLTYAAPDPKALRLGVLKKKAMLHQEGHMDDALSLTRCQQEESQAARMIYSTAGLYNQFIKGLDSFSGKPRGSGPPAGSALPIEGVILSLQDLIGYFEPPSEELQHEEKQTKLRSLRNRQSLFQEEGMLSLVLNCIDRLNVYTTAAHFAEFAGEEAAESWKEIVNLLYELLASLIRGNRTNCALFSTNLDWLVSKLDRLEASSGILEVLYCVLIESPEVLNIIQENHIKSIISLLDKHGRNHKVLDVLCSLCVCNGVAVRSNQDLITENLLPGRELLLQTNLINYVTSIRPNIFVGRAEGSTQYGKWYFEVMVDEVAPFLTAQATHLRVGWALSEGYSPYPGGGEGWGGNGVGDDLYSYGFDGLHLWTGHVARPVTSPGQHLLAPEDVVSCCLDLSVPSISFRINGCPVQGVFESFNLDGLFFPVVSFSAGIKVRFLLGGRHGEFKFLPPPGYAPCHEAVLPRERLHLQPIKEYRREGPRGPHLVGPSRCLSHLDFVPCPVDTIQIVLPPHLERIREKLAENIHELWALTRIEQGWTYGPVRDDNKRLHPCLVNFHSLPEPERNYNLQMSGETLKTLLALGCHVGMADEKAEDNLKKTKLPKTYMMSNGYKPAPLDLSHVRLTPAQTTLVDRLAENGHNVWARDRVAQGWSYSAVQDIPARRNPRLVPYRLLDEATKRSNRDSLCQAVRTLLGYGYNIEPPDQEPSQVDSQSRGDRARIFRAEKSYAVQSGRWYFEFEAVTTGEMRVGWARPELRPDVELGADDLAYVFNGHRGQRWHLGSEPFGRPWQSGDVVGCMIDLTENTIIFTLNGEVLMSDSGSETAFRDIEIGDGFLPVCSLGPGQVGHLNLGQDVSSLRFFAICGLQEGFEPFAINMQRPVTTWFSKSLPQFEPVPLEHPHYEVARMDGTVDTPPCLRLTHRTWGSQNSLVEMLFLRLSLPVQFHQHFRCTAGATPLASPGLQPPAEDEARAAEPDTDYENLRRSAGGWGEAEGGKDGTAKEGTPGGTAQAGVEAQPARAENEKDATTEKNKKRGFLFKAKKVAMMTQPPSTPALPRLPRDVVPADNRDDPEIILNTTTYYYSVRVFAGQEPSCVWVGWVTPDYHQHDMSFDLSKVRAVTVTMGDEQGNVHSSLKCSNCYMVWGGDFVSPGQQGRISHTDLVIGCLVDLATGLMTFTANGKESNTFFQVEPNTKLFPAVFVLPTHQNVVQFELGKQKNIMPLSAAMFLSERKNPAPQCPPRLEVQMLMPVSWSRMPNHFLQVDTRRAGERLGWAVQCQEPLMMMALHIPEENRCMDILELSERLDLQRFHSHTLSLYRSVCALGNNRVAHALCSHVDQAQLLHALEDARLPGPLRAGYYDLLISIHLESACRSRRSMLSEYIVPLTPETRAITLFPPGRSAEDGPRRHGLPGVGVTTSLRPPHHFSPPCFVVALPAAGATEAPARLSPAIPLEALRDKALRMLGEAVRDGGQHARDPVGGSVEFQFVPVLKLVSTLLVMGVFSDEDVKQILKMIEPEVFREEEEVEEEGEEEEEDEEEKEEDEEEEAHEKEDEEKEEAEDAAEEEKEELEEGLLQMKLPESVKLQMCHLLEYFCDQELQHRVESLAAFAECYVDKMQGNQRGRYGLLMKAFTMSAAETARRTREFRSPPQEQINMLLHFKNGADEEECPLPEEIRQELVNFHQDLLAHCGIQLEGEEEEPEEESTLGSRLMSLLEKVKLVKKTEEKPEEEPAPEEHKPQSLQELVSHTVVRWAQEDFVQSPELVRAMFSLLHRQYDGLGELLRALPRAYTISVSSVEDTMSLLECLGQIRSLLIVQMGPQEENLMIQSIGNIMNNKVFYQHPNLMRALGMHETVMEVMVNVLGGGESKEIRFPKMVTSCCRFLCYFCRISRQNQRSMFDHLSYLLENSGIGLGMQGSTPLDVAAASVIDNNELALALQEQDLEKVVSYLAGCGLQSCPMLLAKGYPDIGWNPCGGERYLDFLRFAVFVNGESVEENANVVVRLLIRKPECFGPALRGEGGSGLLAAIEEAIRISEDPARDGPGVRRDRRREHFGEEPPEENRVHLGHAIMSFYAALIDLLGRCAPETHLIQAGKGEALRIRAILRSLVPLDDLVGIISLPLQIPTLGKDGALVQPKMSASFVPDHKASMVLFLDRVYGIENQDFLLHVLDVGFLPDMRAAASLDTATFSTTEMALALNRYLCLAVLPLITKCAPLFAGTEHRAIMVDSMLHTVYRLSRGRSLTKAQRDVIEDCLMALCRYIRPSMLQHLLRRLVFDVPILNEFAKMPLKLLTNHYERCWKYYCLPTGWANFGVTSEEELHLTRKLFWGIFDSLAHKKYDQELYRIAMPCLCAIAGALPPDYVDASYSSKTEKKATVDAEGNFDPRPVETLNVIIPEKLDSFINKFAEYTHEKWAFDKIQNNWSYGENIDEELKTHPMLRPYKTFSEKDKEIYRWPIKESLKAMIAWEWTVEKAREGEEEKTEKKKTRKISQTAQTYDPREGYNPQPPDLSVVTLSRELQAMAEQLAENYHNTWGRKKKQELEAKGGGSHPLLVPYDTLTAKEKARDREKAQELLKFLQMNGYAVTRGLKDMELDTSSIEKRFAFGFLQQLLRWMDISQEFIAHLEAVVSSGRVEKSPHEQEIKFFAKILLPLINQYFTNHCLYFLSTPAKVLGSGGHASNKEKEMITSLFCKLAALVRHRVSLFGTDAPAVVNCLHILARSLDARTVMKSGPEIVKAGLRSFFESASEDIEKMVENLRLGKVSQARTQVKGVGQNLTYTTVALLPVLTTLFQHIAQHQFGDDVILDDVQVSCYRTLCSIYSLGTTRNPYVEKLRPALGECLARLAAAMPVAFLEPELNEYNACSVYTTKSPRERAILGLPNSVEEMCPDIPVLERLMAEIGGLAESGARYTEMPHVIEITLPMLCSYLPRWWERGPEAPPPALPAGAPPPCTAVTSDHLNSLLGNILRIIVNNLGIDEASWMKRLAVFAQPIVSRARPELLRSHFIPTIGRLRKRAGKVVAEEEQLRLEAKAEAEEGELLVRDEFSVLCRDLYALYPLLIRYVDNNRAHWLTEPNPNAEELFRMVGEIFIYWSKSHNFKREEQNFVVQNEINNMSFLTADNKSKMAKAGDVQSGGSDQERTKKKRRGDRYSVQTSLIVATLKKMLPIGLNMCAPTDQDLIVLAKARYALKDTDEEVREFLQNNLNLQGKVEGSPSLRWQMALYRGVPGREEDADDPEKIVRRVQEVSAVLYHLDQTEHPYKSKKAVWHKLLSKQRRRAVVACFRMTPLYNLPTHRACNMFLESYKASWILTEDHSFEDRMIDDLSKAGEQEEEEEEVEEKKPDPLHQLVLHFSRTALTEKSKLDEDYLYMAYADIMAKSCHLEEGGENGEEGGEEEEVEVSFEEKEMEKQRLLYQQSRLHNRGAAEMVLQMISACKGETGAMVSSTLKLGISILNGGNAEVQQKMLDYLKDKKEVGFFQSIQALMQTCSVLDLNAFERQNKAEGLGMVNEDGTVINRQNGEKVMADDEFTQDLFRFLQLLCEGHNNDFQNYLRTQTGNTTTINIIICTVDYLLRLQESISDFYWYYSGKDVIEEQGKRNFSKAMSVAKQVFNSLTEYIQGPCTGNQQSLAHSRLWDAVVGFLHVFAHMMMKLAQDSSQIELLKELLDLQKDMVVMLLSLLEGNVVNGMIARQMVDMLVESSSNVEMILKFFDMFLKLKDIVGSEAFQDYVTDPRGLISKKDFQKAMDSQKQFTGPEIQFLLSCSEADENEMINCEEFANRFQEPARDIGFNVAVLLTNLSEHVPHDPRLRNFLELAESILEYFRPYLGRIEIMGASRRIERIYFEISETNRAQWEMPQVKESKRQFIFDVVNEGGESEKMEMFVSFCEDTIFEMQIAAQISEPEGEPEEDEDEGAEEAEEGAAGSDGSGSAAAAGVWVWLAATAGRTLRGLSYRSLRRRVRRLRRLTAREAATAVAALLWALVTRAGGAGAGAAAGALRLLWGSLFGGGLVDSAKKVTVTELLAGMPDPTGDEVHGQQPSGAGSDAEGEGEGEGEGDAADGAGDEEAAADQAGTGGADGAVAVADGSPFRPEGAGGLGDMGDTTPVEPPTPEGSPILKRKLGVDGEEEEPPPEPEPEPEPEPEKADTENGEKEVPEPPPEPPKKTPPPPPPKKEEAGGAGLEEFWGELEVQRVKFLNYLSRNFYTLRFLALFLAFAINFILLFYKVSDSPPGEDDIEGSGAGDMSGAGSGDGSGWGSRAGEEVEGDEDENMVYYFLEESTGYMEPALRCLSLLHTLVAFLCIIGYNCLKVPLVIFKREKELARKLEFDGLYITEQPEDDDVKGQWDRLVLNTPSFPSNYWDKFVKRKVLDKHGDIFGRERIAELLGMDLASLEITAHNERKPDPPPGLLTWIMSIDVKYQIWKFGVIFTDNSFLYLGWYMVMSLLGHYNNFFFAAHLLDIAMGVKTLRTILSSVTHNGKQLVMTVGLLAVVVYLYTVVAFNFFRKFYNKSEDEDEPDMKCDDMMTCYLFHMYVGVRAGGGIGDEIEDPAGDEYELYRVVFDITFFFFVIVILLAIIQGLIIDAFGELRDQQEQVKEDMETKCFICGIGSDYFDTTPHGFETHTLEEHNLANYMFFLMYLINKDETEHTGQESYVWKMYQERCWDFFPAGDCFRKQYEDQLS
T1 sequence (P26883 2-108 partner limits assumed): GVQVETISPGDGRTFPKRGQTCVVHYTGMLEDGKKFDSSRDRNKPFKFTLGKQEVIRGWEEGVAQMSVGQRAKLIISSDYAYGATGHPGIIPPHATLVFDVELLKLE

RyR2 = conditions: animals; cited from earlier work
RyR1 [3] = target: T1, RyR1; parameters: from tissue; host or cells: skeletal muscle of mdx mice; conditions: mdx model of DMD; cited from earlier work
RyR [4] = assay: S107 blood brain barrier crossing and calstabin binding to RyR in brain in vivo
Excerpt: Data from heart and soleus muscle are also illustrated.
Cardiac muscle RyR2 is PKA hyperphosphorylated, oxidized, nitrosylated and depleted of calstabin2 in animal models of heart failure (HF) and in the hearts of patients with HF. […] Compounds of formula I-o, which share a common structure with S107, are also expected to have similar activities. This advantage is expected to enhance the ability of the TGFbeta inhibitor to be available to act upon most body tissues for improved effectiveness.

RyR [5] = conditions: cited from earlier work
PC-3 bone metastases = assay: PC-3 prostate cancer bone metastases in mice; format: in vivo; conditions: osteolytic model; X-ray, osteolytic lesion area, survival
Excerpt: For all mouse experiments, N=15 for each group of mice for tumors inoculated in the left cardiac ventricle (PC-3) or intratibially (LuCAP23.1) based on power analysis detailed below. Male nude mice are housed in laminar flow isolated hoods with water supplemented with vitamin K and autoclaved mouse chow provided ad libitum. Cells are introduced into mice at 4 wks of age. Animals are anesthetized with ketamine/xylazine and positioned ventral side up.
Multiple modalities of bone imaging including X-ray and μCT are used to longitudinally monitor the bone lesions and confirmed by histology and quantitative histomorphometry as previously described (Dunn et al., 2009; Guise et al., 1996b; Yin et al., 1999). Muscle mass are followed serially in vivo using the Piximus II system (Wiren et al., 2011) and microCT (Manske et al., 2011).

[6] = system: LuCaP 23.1 human prostate cancer osteoblastic xenograft; assay: LuCaP 23.1 osteoblastic prostate cancer xenograft in tibia of nude mice; format: in vivo
Excerpt: Four-week old, male nude mice were inoculated into the tibia with LuCaP 23.1 human prostate cancer osteoblastic xenograft (n=14-15/group).

[7] = EDL muscle specific force in mice with PC-3 prostate cancer bone metastases; format: in vivo; conditions: hypogonadal mice with PC-3 prostate cancer metastatic to bone
Method: (§2) In embodiments B and C are shown decreased skeletal muscle cross-sectional area in tumor-bearing mice determined by Micro-CT as described herein. In embodiments D and E are shown decreased body weight (D) and decreased Grip strength (E) in PC-3 tumor bearing mice. […] In embodiment J is shown that RyR1 is oxidized and there is decreased calstabin1 in the RyR1 complex from, skeletal muscle (EDL) from mice with metastatic prostate cancer. RyR1 was immunoprecipitated from 250 μg of EDL homogenate using an anti-RyR antibody (4 μg 5029 Ab), and the immunoprecipitates were separated on SDS-PAGE gels (6% for RyR. 15% for Calstabin). All immunoblots were developed and quantified with the Odyssey system (LI-COR, Inc., Lincoln, Nebr.) using IR labeled anti-mouse and anti-Rabbit IgG (1:10,000 dilution) secondary antibodies. Immunoblots developed using anti-RyR (clone 34C, 1:5,000), anti-Cys-NO (1:1000, Sigma, St. Louis, Mo.), anti-DNP (to determine RyR1 oxidation. 1:250), and anticalstabin (1:2500). […] Quantification of immunoblots showing the relative nitrotyrosine/SERCA for each group of EDLs tested. *p<0.01 compared to non-cancer controls as analyzed by ANOVA. […]
S107 is administered in the drinking water at a dose of 50 mg/kg/d, water consumption is monitored and plasma drug levels determined. […]

RyR1 [8] = assay: RyR1 oxidation/nitrosylation/calstabin1 immunoblot of EDL from PC-3 tumor bearing mice; format: in vivo; conditions: mice with prostate cancer metastatic to bone
Method: as §2, with “antibodies.” for “antibodies. Immunoblots developed using anti-RyR (clone 34C, 1:5,000), anti-Cys-NO (1:1000, Sigma, St. Louis, Mo.), anti-DNP (to determine RyR1 oxidation. 1:250), and anticalstabin (1:2500).”
Quantification of RyR1 skeletal channel nitrosylation, oxidation and phosphorylation by protein kinase A (PKA) are performed as described (Bellinger et al., 2009; Bellinger et al., 2008b).
Quantification of depletion of the channel stabilizing subunit calstabin 1 (FKBP12) from skeletal RyR1 by immunoprecipitation techniques are performed as described (Marx et al., 2000). […]

[9] = co-administration of S107 and SD208 in tumor bearing mice; format: in vivo; conditions: S107 in drinking water about 50 mg/kg/day
Method: For example, administering the TGFbeta kinase inhibitor SD208 prevents oxidation of RyR1 and SERCA in skeletal muscles from tumor bearing mice, thus increasing muscle specific force production and grip strength in these mice. The co-administration of S107 further inhibits SR Ca^2+ leak by reducing the stress-induced depletion of calstabin from the RyR channel complex. […] Thus, when these are co-administered, the benzothiazepine derivative is administered at a dosage of between about 20 mg/kg/day and about 100 mg/kg/day and the inhibitor is administered in an amount of about 10 mg/kg/day and about 50 mg/kg/day. The ratio of the amount of benzothiazepine derivative to inhibitor in the co-administered formulation should be between 1:1 to 5:1 and preferably 1.3:1 to 2.5:1. Also, the benzothiazepine and inhibitor can be administered at the same time in a single formulation or sequentially if each is present in a separate formulation.

denosumab: inhibitor of bone resorption
skeletal morbidity [1]: reduce skeletal morbidity

O=C(CC1NCCCC1O)Cn1cnc2cc(Br)c(Cl)cc2c1=O (stereo not shown) [Halofuginone]
cell proliferation (human melanoma cells): inhibited cell proliferation
expression of TGFbeta target genes (PTHrP, CTGF, CXCR4, IL11) (human melanoma cells): reducing expression of TGFbeta target genes
osteolysis in mice with established bone metastasis (1205Lu melanoma cells; assessed by radiography, vs placebo): significantly less osteolysis than mice receiving placebo
bone metastasis, preventive protocol (1205Lu melanoma cells; nude mice inoculated with 1205Lu melanoma cells): inhibited bone metastasis

COc1ccc2c(c1)CN(C)CCS2 [S107]
SR Ca2+ leak (Ca2+ sparks, channel open probability) (RyR1 [2]): reduced SR Ca^2+ leak
exercise capacity (RyR1 [2]): improved
muscle force production (RyR1 [2]): improved muscle force production
oxidation induced depletion of calstabin1 from RyR1 (RyR1 [2]): prevented oxidation induced depletion of calstabin1 from RyR1
tetanic [Ca2+] (RyR1 [2]): increased tetanic [Ca^2+]
HF progression (RyR2): inhibits HF progression
grip strength (RyR1 [3]): improves grip strength
muscle damage (RyR1 [3]): reduced muscle damage
crossing of the blood brain barrier (RyR [4]): crosses the blood brain barrier
binding of calstabin to RyR in the brain (RyR [4]; mid-section and cerebellum): enhances binding of calstabin to a RyR in the brain
specificity (RyR [5]): RyR specific

Fc1ccc(Cl)cc1-c1nc(Nc2ccncc2)c2nccnc2n1 [SD-208]
prevention of PC-3 bone metastases (PC-3 bone metastases): highly effective to prevent bone metastases due to PC-3; also recorded: prevents PC-3 bone metastases
bone formation and tumor growth in LuCaP 23.1 ([6]; 50 or 150 mg/kg/day po, from 12 weeks post inoculation): does not increase bone formation or tumor growth
efficacy against LuCAP23.1 bone metastases ([6]; osteoblastic model): not effective against LuCAP23.1 bone metastases
muscle (EDL) specific force production [7]: improved muscle specific force production
skeletal muscle RyR1 oxidation, nitrosylation and depletion of calstabin 1 (RyR1 [8]): prevented oxidation/nitrosylation/calstabin1 depletion from RyR1; also recorded: prevented oxidation of RyR1
effect of oral SD208 about 30 mg/kg/day co-administered with S107 [9]: same effects as administering SD208 at a dosage of about 60 mg/kg/day
